# Test results from patent US8785452B2, “Anti-infective compounds” (priority 2008, dated 2014).
# Like-named read-outs stand apart in the source and are kept apart here.
# Tests used:
# [1] = system: M. tuberculosis H37Rv-GFP; assay: microbe, parasite or virus in culture; type: cell-based, Mycobacterium tuberculosis; conditions: Mycobacterium tuberculosis, H37RV, Macrophage; for inhibition at 0.2 µM: read-out: QIM Confirm % Inhibition 0.2 uM; for inhibition at 2 µM: read-out: QIM Confirm % Inhibition 2 uM
# Raw264.7 cells = assay: Cell number (CellNb) from image analysis of the phenotypic cell-based assay
# [2] = system: M. tuberculosis H37Rv-GFP; assay: microbe, parasite or virus in culture; type: cell-based; conditions: Mycobacterium tuberculosis; for inhibition at 0.2 µM: read-out: QUM Confirm % Inhibition 0.2 uM; for inhibition at 2 µM: read-out: QUM Confirm % Inhibition 2 uM; for inhibition at 20 µM: read-out: QUM Confirm % Inhibition 20 uM
# [3] = confirmation, 0.2 uM, intracellular
# [4] = confirmation, 2 uM, intracellular
# [5] = confirmation, 20 uM, read-out: QIM Confirm % Inhibition 20 uM
# [6] = primary screen, 20 μM, read-out: Primary QIM % Inhibition
# [7] = read-out: Primary QIM % Inhibition
# [8] = read-out: QIM Confirm % Inhibition 20 uM
compound,measurement,setting,value
CCCCc1ccc(/C=N/NC(=O)c2ccncc2)cc1 [IPK 000 013 69],inhibition at 0.2 µM,[1]; [3],68.9%
same,inhibition at 2 µM,[1]; [4],105%
same,inhibition at 20 µM,[1]; [5],58.6%
same,inhibition at 20 µM,[1]; [6],91.3%
same,QIM Confirm CellNb 0.2 uM,"Raw264.7 cells; confirmation, 0.2 uM",405.8
same,QIM Confirm CellNb 2 uM,"Raw264.7 cells; confirmation, 2 uM",532.1
same,QIM Confirm CellNb 20 uM,"Raw264.7 cells; confirmation, 20 uM",443.3
same,Primary QIM CellNb,"Raw264.7 cells; primary screen, 20 μM",327.5
same,inhibition at 0.2 µM,[2],51.2%
same,inhibition at 2 µM,[2],79.1%
same,inhibition at 20 µM,[2],62.4%
O=C1c2ccccc2-c2nc3nonc3nc21 [IPK 000 011 19],inhibition at 0.2 µM,[1]; [3],9.7%
same,inhibition at 2 µM,[1]; [4],31.6%
same,inhibition at 20 µM,[1]; [5],47.6%
same,inhibition at 20 µM,[1]; [6],60%
same,QIM Confirm CellNb 0.2 uM,"Raw264.7 cells; confirmation, 0.2 uM",248.8
same,QIM Confirm CellNb 2 uM,"Raw264.7 cells; confirmation, 2 uM",80.0
same,QIM Confirm CellNb 20 uM,"Raw264.7 cells; confirmation, 20 uM",279.1
same,Primary QIM CellNb,"Raw264.7 cells; primary screen, 20 μM",190.8
same,inhibition at 0.2 µM,[2],67.2%
same,inhibition at 2 µM,[2],93.2%
same,inhibition at 20 µM,[2],43.1%
O=C(N/N=C/c1cccc2ccccc12)c1ccncc1 [IPK 000 041 46],inhibition at 0.2 µM,[1]; [3],41.8%
same,inhibition at 2 µM,[1]; [4],101%
same,inhibition at 20 µM,[1]; [5],93.3%
same,inhibition at 20 µM,[1]; [6],81.2%
same,QIM Confirm CellNb 0.2 uM,"Raw264.7 cells; confirmation, 0.2 uM",386.9
same,QIM Confirm CellNb 2 uM,"Raw264.7 cells; confirmation, 2 uM",542.6
same,QIM Confirm CellNb 20 uM,"Raw264.7 cells; confirmation, 20 uM",347.1
same,Primary QIM CellNb,"Raw264.7 cells; primary screen, 20 μM",320.0
same,inhibition at 0.2 µM,[2],41.1%
same,inhibition at 2 µM,[2],81.4%
same,inhibition at 20 µM,[2],57.9%
O=C(NN=C1CCCC1)c1ccncc1 [IPK 000 013 70],inhibition at 0.2 µM,[1]; [3],50.5%
same,inhibition at 2 µM,[1]; [4],98.1%
same,inhibition at 20 µM,[1]; [5],103%
same,inhibition at 20 µM,[1]; [6],88.3%
same,QIM Confirm CellNb 0.2 uM,"Raw264.7 cells; confirmation, 0.2 uM",412.6
same,QIM Confirm CellNb 2 uM,"Raw264.7 cells; confirmation, 2 uM",510.9
same,QIM Confirm CellNb 20 uM,"Raw264.7 cells; confirmation, 20 uM",518.5
same,Primary QIM CellNb,"Raw264.7 cells; primary screen, 20 μM",309.3
same,inhibition at 0.2 µM,[2],46.3%
same,inhibition at 2 µM,[2],79.4%
same,inhibition at 20 µM,[2],67.6%
O=C(N/N=C/c1cccc([N+](=O)[O-])c1)c1ccncc1 [IPK 000 041 47],inhibition at 0.2 µM,[1]; [3],74.5%
same,inhibition at 2 µM,[1]; [4],102%
same,inhibition at 20 µM,[1]; [5],95.5%
same,inhibition at 20 µM,[1]; [6],102%
same,QIM Confirm CellNb 0.2 uM,"Raw264.7 cells; confirmation, 0.2 uM",479.8
same,QIM Confirm CellNb 2 uM,"Raw264.7 cells; confirmation, 2 uM",516.1
same,QIM Confirm CellNb 20 uM,"Raw264.7 cells; confirmation, 20 uM",345.8
same,Primary QIM CellNb,"Raw264.7 cells; primary screen, 20 μM",362.8
same,inhibition at 0.2 µM,[2],43.8%
same,inhibition at 2 µM,[2],82.3%
same,inhibition at 20 µM,[2],99.5%
O=C(NCCOCc1ccccc1)c1cc([N+](=O)[O-])cc([N+](=O)[O-])c1 [IPK 000 027 91],inhibition at 20 µM,[1]; [7],89%
same,inhibition at 0.2 µM,[1],14.2%
same,inhibition at 2 µM,[1],98.5%
same,inhibition at 20 µM,[1]; [8],46.1%
same,Primary QIM CellNb,Raw264.7 cells,410.8
same,QIM Confirm CellNb 0.2 uM,Raw264.7 cells,295.3
same,QIM Confirm CellNb 2 uM,Raw264.7 cells,434.1
same,QIM Confirm CellNb 20 uM,Raw264.7 cells,325.6
same,inhibition at 0.2 µM,[2],65.8%
same,inhibition at 2 µM,[2],97.6%
same,inhibition at 20 µM,[2],75%
O=[N+]([O-])c1cc(C(F)(F)F)cc([N+](=O)[O-])c1Sc1nc(-c2ccccc2)c[nH]1 [IPK 000 001 32],inhibition at 0.2 µM,[1]; [3],10.3%
same,inhibition at 2 µM,[1]; [4],0.2%
same,inhibition at 20 µM,[1]; [5],50.7%
same,inhibition at 20 µM,[1]; [6],25.4%
same,QIM Confirm CellNb 0.2 uM,"Raw264.7 cells; confirmation, 0.2 uM",241.4
same,QIM Confirm CellNb 2 uM,"Raw264.7 cells; confirmation, 2 uM",208.5
same,QIM Confirm CellNb 20 uM,"Raw264.7 cells; confirmation, 20 uM",113.8
same,Primary QIM CellNb,"Raw264.7 cells; primary screen, 20 μM",88.3
same,inhibition at 0.2 µM,[2],43.9%
same,inhibition at 2 µM,[2],41.2%
same,inhibition at 20 µM,[2],89.1%
C/C(=N\NC(N)=S)c1ccc(Cl)cc1 [IPK 000 002 17],inhibition at 20 µM,[1]; [7],26.6%
same,inhibition at 0.2 µM,[1],54.5%
same,inhibition at 2 µM,[1],70.4%
same,inhibition at 20 µM,[1]; [8],24.5%
same,Primary QIM CellNb,Raw264.7 cells,235.5
same,QIM Confirm CellNb 0.2 uM,Raw264.7 cells,472.3
same,QIM Confirm CellNb 2 uM,Raw264.7 cells,541.6
same,QIM Confirm CellNb 20 uM,Raw264.7 cells,249.8
same,inhibition at 0.2 µM,[2],56.9%
same,inhibition at 2 µM,[2],67.4%
same,inhibition at 20 µM,[2],49.7%
O=C(Oc1cccc2ncccc12)c1ccccc1F [IPK 000 018 65],inhibition at 0.2 µM,[1]; [3],28%
same,inhibition at 2 µM,[1]; [4],14%
same,inhibition at 20 µM,[1]; [5],39.2%
same,inhibition at 20 µM,[1]; [6],23.1%
same,QIM Confirm CellNb 0.2 uM,"Raw264.7 cells; confirmation, 0.2 uM",256.6
same,QIM Confirm CellNb 2 uM,"Raw264.7 cells; confirmation, 2 uM",218.3
same,QIM Confirm CellNb 20 uM,"Raw264.7 cells; confirmation, 20 uM",256.4
same,Primary QIM CellNb,"Raw264.7 cells; primary screen, 20 μM",218.0
same,inhibition at 0.2 µM,[2],36.4%
same,inhibition at 2 µM,[2],54%
same,inhibition at 20 µM,[2],99%
Clc1ccc(Nc2nc3nonc3nc2Nc2ccc(Cl)c(Cl)c2)cc1Cl [IPK 000 003 89],inhibition at 0.2 µM,[1]; [3],20.1%
same,inhibition at 2 µM,[1]; [4],86.6%
same,inhibition at 20 µM,[1]; [5],84.6%
same,inhibition at 20 µM,[1]; [6],27.7%
same,QIM Confirm CellNb 0.2 uM,"Raw264.7 cells; confirmation, 0.2 uM",265.3
same,QIM Confirm CellNb 2 uM,"Raw264.7 cells; confirmation, 2 uM",200.6
same,QIM Confirm CellNb 20 uM,"Raw264.7 cells; confirmation, 20 uM",103.0
same,Primary QIM CellNb,"Raw264.7 cells; primary screen, 20 μM",72.5
same,inhibition at 0.2 µM,[2],44%
same,inhibition at 2 µM,[2],76.5%
same,inhibition at 20 µM,[2],67%
O=C(NN=C1CCCCC1)c1ccncc1 [IPK 000 013 72],inhibition at 0.2 µM,[1]; [3],63.2%
same,inhibition at 2 µM,[1]; [4],104%
same,inhibition at 20 µM,[1]; [5],101%
same,inhibition at 20 µM,[1]; [6],82.2%
same,QIM Confirm CellNb 0.2 uM,"Raw264.7 cells; confirmation, 0.2 uM",448.5
same,QIM Confirm CellNb 2 uM,"Raw264.7 cells; confirmation, 2 uM",541.6
same,QIM Confirm CellNb 20 uM,"Raw264.7 cells; confirmation, 20 uM",457.3
same,Primary QIM CellNb,"Raw264.7 cells; primary screen, 20 μM",355.5
same,inhibition at 0.2 µM,[2],57.7%
same,inhibition at 2 µM,[2],73.9%
same,inhibition at 20 µM,[2],98%
O=C(N/N=C/c1cccc(Br)c1)C1C2CC/C=C\CCC21 (stereo not drawn) [IPK 000 010 06],inhibition at 0.2 µM,[1]; [3],17.1%
same,inhibition at 2 µM,[1]; [4],18%
same,inhibition at 20 µM,[1]; [5],81.8%
same,inhibition at 20 µM,[1]; [6],81%
same,QIM Confirm CellNb 0.2 uM,"Raw264.7 cells; confirmation, 0.2 uM",412.0
same,QIM Confirm CellNb 2 uM,"Raw264.7 cells; confirmation, 2 uM",344.9
same,QIM Confirm CellNb 20 uM,"Raw264.7 cells; confirmation, 20 uM",380.9
same,Primary QIM CellNb,"Raw264.7 cells; primary screen, 20 μM",322.8
same,inhibition at 0.2 µM,[2],39.5%
same,inhibition at 2 µM,[2],43.1%
same,inhibition at 20 µM,[2],39.2%
O=C(N/N=C/c1ccccc1O)c1ccncc1 [IPK 000 041 45],inhibition at 0.2 µM,[1]; [3],56.7%
same,inhibition at 2 µM,[1]; [4],103%
same,inhibition at 20 µM,[1]; [5],87.2%
same,inhibition at 20 µM,[1]; [6],88.6%
same,QIM Confirm CellNb 0.2 uM,"Raw264.7 cells; confirmation, 0.2 uM",437.4
same,QIM Confirm CellNb 2 uM,"Raw264.7 cells; confirmation, 2 uM",527.9
same,QIM Confirm CellNb 20 uM,"Raw264.7 cells; confirmation, 20 uM",243.8
same,Primary QIM CellNb,"Raw264.7 cells; primary screen, 20 μM",324.5
same,inhibition at 0.2 µM,[2],38.4%
same,inhibition at 2 µM,[2],47.4%
same,inhibition at 20 µM,[2],100%
Cc1ccc2ccc3ccc(C)nc3c2n1 [IPK 000 002 03],inhibition at 0.2 µM,[1]; [3],-2%
same,inhibition at 2 µM,[1]; [4],7.7%
same,inhibition at 20 µM,[1]; [5],-12.3%
same,inhibition at 20 µM,[1]; [6],-28.5%
same,QIM Confirm CellNb 0.2 uM,"Raw264.7 cells; confirmation, 0.2 uM",241.4
same,QIM Confirm CellNb 2 uM,"Raw264.7 cells; confirmation, 2 uM",92.0
same,QIM Confirm CellNb 20 uM,"Raw264.7 cells; confirmation, 20 uM",148.0
same,Primary QIM CellNb,"Raw264.7 cells; primary screen, 20 μM",77.0
same,inhibition at 0.2 µM,[2],32.5%
same,inhibition at 2 µM,[2],52.4%
same,inhibition at 20 µM,[2],69.7%
O=C1Nc2ccccc2/C1=N/NC(=O)c1ccncc1 [IPK 000 006 35],inhibition at 0.2 µM,[1]; [3],17.7%
same,inhibition at 2 µM,[1]; [4],22.8%
same,inhibition at 20 µM,[1]; [5],65.2%
same,inhibition at 20 µM,[1]; [6],97.6%
same,QIM Confirm CellNb 0.2 uM,"Raw264.7 cells; confirmation, 0.2 uM",262.8
same,QIM Confirm CellNb 2 uM,"Raw264.7 cells; confirmation, 2 uM",320.9
same,QIM Confirm CellNb 20 uM,"Raw264.7 cells; confirmation, 20 uM",328.8
same,Primary QIM CellNb,"Raw264.7 cells; primary screen, 20 μM",424.3
same,inhibition at 0.2 µM,[2],23.7%
same,inhibition at 2 µM,[2],41.9%
same,inhibition at 20 µM,[2],43.4%
